Measurements taken from US20030119013A1, “Identification of essential genes of Aspergillus fumigatus and methods of use” (priority 2001, published 2003).

Columns and labels:
[1] = test system: bar-coded strains bearing heterozygous mutations in HIS3, TUB1, ALG7, and ERG11; conditions: Saccharomyces cerevisiae, mixed population, challenged with respective compound; cited from earlier work
[2] = test system: Aspergillus fumigatus transformed cells containing the integrated PglaA promoter (AfHIS3); assay: Titration against 3-aminotriazole of PglaA-AfHIS3 promoter replacement strain; format: cell-based
Description: Aspergillus fumigatus is sensitive to the catalase inhibitor 3-aminotriazole (3-AT), which targets the product of the HIS3 gene. The concentration of 3-AT sufficient to inhibit growth of Aspergillus fumigatus is thusly dependent on the amount of HIS3 gene product present in the cells.
For instance, culturing the transformed cells containing the integrated PglaA promoter in a medium supplemented with different carbon sources or ratios of carbon sources allows the amount of AfHIS3 gene product to be increased or decreased relative to endogenous levels to generate cells that are more or less sensitive to 3-AT based on the amount of HIS3 gene product. It is known, for example, that transcription from the PglaA promoter is induced in the presence of maltose, repressed in the presence of xylose and intermediate levels of activity are detected from cells grown on glucose. By adjusting the ratio of maltose to xylose in the culture medium, the amount of transcription may be titrated, at least in a step-wise manner, to adjust levels of transcript in the cell.

[3] = test system: invasive aspergillosis (IA); conditions: patients with invasive aspergillosis; cited from earlier work
[4] = test system: AfERG11β knockout strain and AfERG11α knockout strain; assay: Azole sensitivity on agar gradient plates, knockout strains; format: cell-based, Aspergillus fumigatus
Description: (§1) Aspergillus fumigatus strains were constructed in which either the AfERG11 gene or the AfERG11β gene had been “knocked out.” Each of these strains was compared to the wild-type Aspergillus fumigatus strain CEA 10 with respect to its sensitivity, as analyzed on agar gradient plates, to two representative azole compounds, ketoconazole and itraconazole.

[5] = test system: wild-type Aspergillus fumigatus strain CEA 10; assay: Azole sensitivity on agar gradient plates, wild-type strain; format: cell-based; conditions: versus AfERG11 and AfERG11β knockout strains
Description: as §1

## Nc1nc[nH]n1 [3-AT, 3-aminotriazole]
[1]
  sensitivity of heterozygous drug-target strain compared with other heterozygote bar-coded strains: significantly greater sensitivity
[2]; Aspergillus fumigatus, general statement
  sensitivity of Aspergillus fumigatus to 3-aminotriazole: sensitive
[2]; cells grown in the presence of maltose (e.g. 2% maltose), PglaA induced
  resistance in the presence of 3-AT: increased resistance
[2]; cells grown in the presence of xylose (e.g. 1% xylose), PglaA repressed
  resistance to 3-AT: decreased resistance

## C[C@@H]1[C@H](O)[C@@H](C)/C=C/C=C/C=C/C=C/C=C/C=C/C=C/[C@H](O[C@@H]2O[C@H](C)[C@@H](O)[C@H](N)[C@@H]2O)C[C@@H]2O[C@](O)(C[C@@H](O)C[C@@H](O)[C@H](O)CC[C@@H](O)C[C@@H](O)CC(=O)O[C@H]1C)C[C@H](O)[C@H]2C(=O)O [AmB, amphotericin B]
[3]
  overall success rate of therapy for IA: 34%

## CCCCNC(=O)n1c(NC(=O)OC)nc2ccccc21 [benomyl]
[1]
  sensitivity of heterozygous drug-target strain compared with other heterozygote bar-coded strains: significantly greater sensitivity

## OC(Cn1cncn1)(Cn1cncn1)c1ccc(F)cc1F [fluconazole]
[1]
  sensitivity of heterozygous drug-target strain compared with other heterozygote bar-coded strains: significantly greater sensitivity

## CC(=O)N1CCN(c2ccc(OCC3COC(Cn4ccnc4)(c4ccc(Cl)cc4Cl)O3)cc2)CC1 (stereo not shown) [ketoconazole]
[4]
  resistance of AfERG11β knockout strain compared with AfERG11α knockout strain: more resistant
[5]
  resistance of wild-type strain CEA 10 compared with either knockout strain: more resistant

## tunicamycin
[1]
  sensitivity of heterozygous drug-target strain compared with other heterozygote bar-coded strains: significantly greater sensitivity
